US20240238424A1, “HETEROBIFUNCTIONAL COMPOUNDS AND METHODS OF TREATING DISEASE” (Halda Therapeutics OpCo, Inc., priority 2021, published 2024)

Assays:
[1] = molecular target: T1, GSPT1 (Homo sapiens, UniProt P15170+Q96SW2); assay: GSPT1 HiBit degradation assay; assay type: cell-based; conditions: HEK293 LgBiT cells expressing GSPT1_HiBiT, luminescence after 6 hours
T1 construct: host or cells: HEK293 LgBiT cell line
In short: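 HEK293 cells stably expressing LgBiT and GSPT1-HiBiT, seeded 18-24 h before dosing, were treated with titrated compound plus endurazine (0.5× final) at 37 °C. Luminescence loss after 6 h reflects GSPT1 degradation; DC50 is the concentration giving 50% degradation.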

[2] = tested on: HeLa KRas G12C cells; assay: Cellular growth inhibition assay (CTG), HeLa KRas G12C cells; assay type: cell-based; conditions: Homo sapiens, CellTiter-Glo 2.0, day-5
Protocol: Cells were seeded in Poly-D-lysine-treated 384-well white plates, with 25 μL cell suspension at 250 cells/well for continuous treatments, and 1000 cells/well for washout treatments. Plates were spun at 300×g for 3 minutes, and cells were cultured at 37° C. with 5% CO2 in a humidified tissue culture incubator.
After 24 hours, the test compounds were diluted with cell culture medium in 96 deep well plates. DMSO was used as a negative control. A 25 μL aliquot of compound-containing medium was added in each well, at a final top concentration of 10 μM or 30 μM test compound, with 3-fold dilutions. For washout assays, after 4 hours, cell medium with compound was removed, and the cells were washed with 75p L fresh medium. Plates were then spun at 300×g for 3 minutes and replaced with 50 μL fresh medium in each well. Plates were then spun at 300×g for 3 minutes again and cultured at 37° C. with 5% CO2.
At day-0 and day-5 of compound treatments, cell viability was quantified with CellTiter-Glo 2.0 (Promega). After equilibrating cell plates at room temperature for 30 minutes, 25 μL CellTiter-Glo 2.0 reagent was dispensed into each well (on top of 50 μL of cell culture). Plates were mixed on a shaker for 2 minutes at 500 rpm, followed by a 10-minute incubation at room temperature. Luminescence readings were measured with an EnVision Plate Reader. Data was normalized to DMSO treated day-0 cell wells. A four-parameter non-linear regression curve fit was applied to dose-response data in Prism to determine the half maximal growth inhibitory concentration (GI50) of each compound.

T1 sequence (P15170 whole entry): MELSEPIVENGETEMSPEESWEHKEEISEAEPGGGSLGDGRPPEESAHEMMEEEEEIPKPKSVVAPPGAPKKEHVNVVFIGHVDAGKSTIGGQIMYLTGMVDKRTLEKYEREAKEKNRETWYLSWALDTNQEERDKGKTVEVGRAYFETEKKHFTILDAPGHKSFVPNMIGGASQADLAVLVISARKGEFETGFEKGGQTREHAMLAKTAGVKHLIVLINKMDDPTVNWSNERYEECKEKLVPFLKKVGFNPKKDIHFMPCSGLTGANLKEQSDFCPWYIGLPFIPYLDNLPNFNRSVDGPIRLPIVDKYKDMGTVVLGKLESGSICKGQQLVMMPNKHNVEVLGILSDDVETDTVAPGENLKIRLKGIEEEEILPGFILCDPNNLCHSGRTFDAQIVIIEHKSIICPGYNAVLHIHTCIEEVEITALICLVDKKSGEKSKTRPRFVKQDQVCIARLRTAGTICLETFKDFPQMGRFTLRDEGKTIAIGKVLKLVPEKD
T1 sequence (Q96SW2 whole entry): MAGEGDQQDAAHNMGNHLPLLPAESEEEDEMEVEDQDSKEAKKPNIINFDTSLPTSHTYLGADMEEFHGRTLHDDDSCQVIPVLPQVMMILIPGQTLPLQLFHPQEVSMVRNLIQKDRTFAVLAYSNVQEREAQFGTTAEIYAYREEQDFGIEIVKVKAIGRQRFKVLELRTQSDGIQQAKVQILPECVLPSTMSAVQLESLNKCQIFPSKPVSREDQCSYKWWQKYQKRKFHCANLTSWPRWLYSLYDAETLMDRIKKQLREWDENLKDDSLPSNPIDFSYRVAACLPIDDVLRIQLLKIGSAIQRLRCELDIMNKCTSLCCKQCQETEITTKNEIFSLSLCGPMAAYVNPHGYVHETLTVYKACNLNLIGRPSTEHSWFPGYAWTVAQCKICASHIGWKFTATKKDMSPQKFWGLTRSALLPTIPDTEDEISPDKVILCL
T1 sequence (Q16531 whole entry partner): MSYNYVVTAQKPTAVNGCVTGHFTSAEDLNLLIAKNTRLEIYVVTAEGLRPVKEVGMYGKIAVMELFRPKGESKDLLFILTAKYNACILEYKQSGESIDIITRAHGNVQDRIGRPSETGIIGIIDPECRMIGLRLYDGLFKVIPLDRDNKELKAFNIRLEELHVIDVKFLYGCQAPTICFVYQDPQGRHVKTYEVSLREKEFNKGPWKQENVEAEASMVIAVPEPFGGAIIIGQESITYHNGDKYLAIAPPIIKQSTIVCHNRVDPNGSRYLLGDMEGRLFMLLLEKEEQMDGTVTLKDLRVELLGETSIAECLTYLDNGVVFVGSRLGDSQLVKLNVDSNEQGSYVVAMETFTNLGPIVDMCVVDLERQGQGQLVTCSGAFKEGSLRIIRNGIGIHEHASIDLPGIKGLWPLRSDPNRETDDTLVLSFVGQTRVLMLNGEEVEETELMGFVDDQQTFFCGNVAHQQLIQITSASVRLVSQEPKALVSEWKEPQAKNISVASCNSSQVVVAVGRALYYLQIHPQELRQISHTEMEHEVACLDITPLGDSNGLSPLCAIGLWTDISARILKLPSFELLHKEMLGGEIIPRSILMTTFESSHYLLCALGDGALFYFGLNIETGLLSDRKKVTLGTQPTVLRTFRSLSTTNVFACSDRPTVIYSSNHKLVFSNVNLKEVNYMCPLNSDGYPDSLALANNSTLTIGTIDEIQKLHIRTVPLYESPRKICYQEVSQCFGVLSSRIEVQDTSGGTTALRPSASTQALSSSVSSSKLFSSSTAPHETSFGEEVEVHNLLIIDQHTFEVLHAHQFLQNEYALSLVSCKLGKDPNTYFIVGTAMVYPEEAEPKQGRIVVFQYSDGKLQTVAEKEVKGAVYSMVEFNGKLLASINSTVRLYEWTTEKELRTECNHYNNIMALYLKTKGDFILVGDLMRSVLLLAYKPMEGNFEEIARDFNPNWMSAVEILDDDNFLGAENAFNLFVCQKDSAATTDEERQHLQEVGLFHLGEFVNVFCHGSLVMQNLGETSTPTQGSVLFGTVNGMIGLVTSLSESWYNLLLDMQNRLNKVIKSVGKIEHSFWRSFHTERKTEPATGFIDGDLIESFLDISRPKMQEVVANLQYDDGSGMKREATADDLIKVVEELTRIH

## C=C(F)C(=O)N1CCN(c2nc(OC[C@@H]3CCCN3CCCCCCCCc3cc(Cl)cc(NC(=O)NCc4ccc5c(c4)CN(C4CCC(=O)NC4=O)C5=O)c3)nc3c2CCN(c2cccc4cccc(Cl)c24)C3)C[C@@H]1CC#N (stereo partly drawn) [Compound I-1, 1-[3-chloro-5-[8-[(2S)-2-[[7-(8-chloro-1-naphthyl)-4-[(3S)-3-(cyanomethyl)-4-(2-fluoroprop-2-enoyl)piperazin-1-yl]-6,8-dihydro-5H-pyrido[3,4-d]pyrimidin-2-yl]oxymethyl]pyrrolidin-1-yl]octyl]phenyl]-3-[[2-(2,6-dioxo-3-piperidyl)-1-oxo-isoindolin-5-yl]methyl]urea]
[1]; Table 3
  DC50: 0.25 to 5 µM
[2]
  GI50: 1 to 3 µM

## C=C(F)C(=O)N1CCN(c2nc(OC[C@@H]3CCCN3CCOCCOCCOCCOCCOCCOCCc3cc(Cl)cc(NC(=O)NCc4ccc5c(c4)CN(C4CCC(=O)NC4=O)C5=O)c3)nc3c2CCN(c2cccc4cccc(Cl)c24)C3)C[C@@H]1CC#N (stereo partly drawn) [Compound I-2, 1-(3-chloro-5-(20-((S)-2-(((7-(8-chloronaphthalen-1-yl)-4-((S)-3-(cyanomethyl)-4-(2-fluoroacryloyl)piperazin-1-yl)-5,6,7,8-tetrahydropyrido[3,4-d]pyrimidin-2-yl)oxy)methyl)pyrrolidin-1-yl)-3,6,9,12,15,18-hexaoxaicosyl)phenyl)-3-((2-(2,6-dioxopiperidin-3-yl)-1-oxoisoindolin-5-yl)methyl)urea]
[1]; Table 3
  DC50: 5 to 10 µM
[2]
  GI50: > 10 µM

## C=C(F)C(=O)N1CCN(c2nc(OC[C@@H]3CCCN3CCCCCCCCNc3cccc4c3CN(C3CCC(=O)NC3=O)C4=O)nc3c2CCN(c2cccc4cccc(Cl)c24)C3)C[C@@H]1CC#N (stereo partly drawn) [Compound I-3, 2-((2S)-4-(7-(8-chloronaphthalen-1-yl)-2-(((2S)-1-(8-((2-(2,6-dioxopiperidin-3-yl)-1-oxoisoindolin-4-yl)amino)octyl)pyrrolidin-2-yl)methoxy)-5,6,7,8-tetrahydropyrido[3,4-d]pyrimidin-4-yl)-1-(2-fluoroacryloyl)piperazin-2-yl)acetonitrile]
[1]; Table 3
  DC50: > 10 µM
[2]
  GI50: 3 to 10 µM

## C=C(F)C(=O)N1CCN(c2nc(OC[C@@H]3CCCN3CCCCCCCCc3cccc4c3CN(C3CCC(=O)NC3=O)C4=O)nc3c2CCN(c2cccc4cccc(Cl)c24)C3)C[C@@H]1CC#N (stereo partly drawn) [Compound I-4, 2-[(2S)-4-[7-(8-chloro-1-naphthyl)-2-[[(2S)-1-[8-[2-(2,6-dioxo-3-piperidyl)-1-oxo-isoindolin-4-yl]octyl]pyrrolidin-2-yl]methoxy]-6,8-dihydro-5H-pyrido[3,4-d]pyrimidin-4-yl]-1-(2-fluoroprop-2-enoyl)piperazin-2-yl]acetonitrile]
[1]; Table 3
  DC50: > 10 µM
[2]
  GI50: 3 to 10 µM

## C=CC(=O)N1CCN(c2nc(NCCCCCCCCc3cc(Cl)cc(NC(=O)NCc4ccc5c(c4)CN(C4CCC(=O)NC4=O)C5=O)c3)nc3c(F)c(-c4cc(O)cc5ccccc45)c(Cl)cc23)CC1 (stereo not drawn) [Compound I-5, 1-[3-chloro-5-[8-[[6-chloro-8-fluoro-7-(3-hydroxy-1-naphthyl)-4-(4-prop-2-enoylpiperazin-1-yl)quinazolin-2-yl]amino]octyl]phenyl]-3-[[2-(2,6-dioxo-3-piperidyl)-1-oxo-isoindolin-5-yl]methyl]urea]
[1]; Table 3
  DC50: < 0.25 µM
[2]
  GI50: > 10 µM

## C=CC(=O)N1CCN(c2nc(NCCCCCCCCNc3cccc4c3CN(C3CCC(=O)NC3=O)C4=O)nc3c(F)c(-c4cc(O)cc5ccccc45)c(Cl)cc23)CC1 (stereo not drawn) [Compound I-6, 3-(4-((8-((4-(4-acryloylpiperazin-1-yl)-6-chloro-8-fluoro-7-(3-hydroxynaphthalen-1-yl)quinazolin-2-yl)amino)octyl)-amino)-1-oxoisoindolin-2-yl)piperidine-2,6-dione]
[1]; Table 3
  DC50: > 10 µM
[2]
  GI50: > 10 µM

## C=CC(=O)N1CCN(c2nc(NCCOCCOCCOCCOCCOCCOCCc3cc(Cl)cc(NC(=O)NCc4ccc5c(c4)CN(C4CCC(=O)NC4=O)C5=O)c3)nc3c(F)c(-c4cc(O)cc5ccccc45)c(Cl)cc23)CC1 (stereo not drawn) [Compound I-7, 1-[3-chloro-5-[2-[2-[2-[2-[2-[2-[2-[[6-chloro-8-fluoro-7-(3-hydroxy-1-naphthyl)-4-(4-prop-2-enoylpiperazin-1-yl)quinazolin-2-yl]amino]ethoxy]ethoxy]ethoxy]ethoxy]ethoxy]ethoxy]ethyl]phenyl]-3-[[2-(2,6-dioxo-3-piperidyl)-1-oxo-isoindolin-5-yl]methyl]urea]
[1]; Table 3
  DC50: 5 to 10 µM
[2]
  GI50: > 10 µM

## C=CC(=O)N1CCN(c2nc(NCCCCCCCCc3cccc4c3CN(C3CCC(=O)NC3=O)C4=O)nc3c(F)c(-c4cc(O)cc5ccccc45)c(Cl)cc23)CC1 (stereo not drawn) [Compound I-8, 3-(4-(8-((4-(4-acryloylpiperazin-1-yl)-6-chloro-8-fluoro-7-(3-hydroxynaphthalen-1-yl)quinazolin-2-yl)amino)octyl)-1-oxoisoindolin-2-yl)piperidine-2,6-dione]
[1]; Table 3
  DC50: > 10 µM
[2]
  GI50: > 10 µM

## C=C(F)C(=O)N1CCN(c2nc(OC[C@@H]3CCCN3CCOCCOCCOCCOCCOCCOCCOCCOCCOc3cc(Cl)cc(NC(=O)NCc4ccc5c(c4)CN(C4CCC(=O)NC4=O)C5=O)c3)nc3c2CCN(c2cccc4cccc(Cl)c24)C3)C[C@@H]1CC#N (stereo partly drawn) [Compound I-9, 1-[3-chloro-5-[2-[2-[2-[2-[2-[2-[2-[2-[2-[(2S)-2-[[7-(8-chloro-1-naphthyl)-4-[(3S)-3-(cyanomethyl)-4-(2-fluoroprop-2-enoyl)piperazin-1-yl]-6,8-dihydro-5H-pyrido[3,4-d]pyrimidin-2-yl]oxymethyl]pyrrolidin-1-yl]ethoxy]ethoxy]ethoxy]ethoxy]ethoxy]ethoxy]ethoxy]ethoxy]ethoxy]phenyl]-3-[[2-(2,6-dioxo-3-piperidyl)-1-oxo-isoindolin-5-yl]methyl]urea]
[1]; Table 3
  DC50: > 10 µM
[2]
  GI50: > 10 µM

## C=C(F)C(=O)N1CCN(c2nc(OC[C@@H]3CCCN3CCOCCOCCOCCOCCOCCOCCOCCOCCOCCOCCOc3cc(Cl)cc(NC(=O)NCc4ccc5c(c4)CN(C4CCC(=O)NC4=O)C5=O)c3)nc3c2CCN(c2cccc4cccc(Cl)c24)C3)C[C@@H]1CC#N (stereo partly drawn) [Compound I-10, 1-[3-chloro-5-[2-[2-[2-[2-[2-[2-[2-[2-[2-[2-[2-[(2S)-2-[[7-(8-chloro-1-naphthyl)-4-[(3S)-3-(cyanomethyl)-4-(2-fluoroprop-2-enoyl)piperazin-1-yl]-6,8-dihydro-5H-pyrido[3,4-d]pyrimidin-2-yl]oxymethyl]pyrrolidin-1-yl]ethoxy]ethoxy]ethoxy]ethoxy]ethoxy]ethoxy]ethoxy]ethoxy]ethoxy]ethoxy]ethoxy]phenyl]-3-[[2-(2,6-dioxo-3-piperidyl)-1-oxo-isoindolin-5-yl]methyl]urea]
[1]; Table 3
  DC50: 5 to 10 µM
[2]
  GI50: 3 to 10 µM

## C=CC(=O)N1CCN(c2nc(=O)n(-c3c(C)cc(OCCOCCOCCOCCOCCOCCOCCOCCOCCOCCOCCOCCCCCc4cc(Cl)cc(NC(=O)NCc5ccc6c(c5)CN(C5CCC(=O)NC5=O)C6=O)c4)nc3C(C)C)c3nc(-c4c(O)cccc4F)c(F)cc23)[C@@H](C)C1 (stereo partly drawn) [Compound I-165]
[1]; Table 3A
  DC50: 0.25 to 5 µM
